Results published in ChEMBL document CHEMBL1157539, “Thousands of chemical starting points for antimalarial lead identification” (Nature, 2010).

Test system: Plasmodium falciparum
Assay: GSK_TCMDC: Inhibition of Plasmodium falciparum 3D7 in whole erythrocytes, using parasite LDH activity as an index of growth.
Type: functional, organism-based
Conditions: Plasmodium falciparum, 3D7

Structure (SMILES) | XC50
Cc1cc(-c2ccc(NC(=O)N3CCc4cc(Br)c(N5CCN(C)CC5)cc43)cc2)ccc1C#N | 883 nM
c1ccc(Oc2ccc(Nc3ccnc(Nc4cccc(CNCCCN5CCOCC5)c4)n3)cc2)cc1 | 1040 nM
CS(=O)(=O)CCNCc1nc(-c2ccc3ncnc(Nc4ccc(OCc5cccc(F)c5)c(Cl)c4)c3c2)cs1 | 771 nM
COC(=O)C(c1ccc(NC(=O)[C@H](CC(C)C)NC(=O)OC(C)(C)C)cc1)c1ccc(NC(=O)[C@H](CC(C)C)NC(=O)OC(C)(C)C)cc1 | 348 nM
Cc1cc(N(C)C2CCN(CC3CCCCC3)C2)nc(Nc2ccc(Br)cc2)n1 (configuration not stated) | 703 nM
Cc1cccc2nc(-c3ccc(-c4cccc(CNCCNC(=O)c5ccnn5C)c4)s3)[nH]c12 | 216 nM
COc1cc(NCCCCCNc2cc(Cl)nc3ccccc23)nc2ccccc12 | 783 nM
COCCNCc1ccc(-c2ccc3c(Nc4ccc(F)cc4Cl)ccnc3c2)o1 | 209 nM
Clc1cnc2ccc3c(c2c1CCN1CCC(NCc2cc4c(cn2)OCCO4)CC1)OCCO3 | 718 nM
COc1c(C2CCN(CCCCNC(=O)c3oc(-c4ccc(Cl)cc4)cc3CO)CC2)ccc2c1CCCC2 | 367 nM
Cc1ccc(CCC(C)NCC(O)c2cccc(C(F)(F)F)c2)cc1 (configuration not stated) | 561 nM
CCn1ncc2c(N3CCCC3=O)cc(C(=O)N[C@@H](Cc3ccccc3)[C@H](O)CNC(C)(C)c3cccc(C(F)(F)F)c3)cc21 | 149 nM
COc1ccc2ncc(F)c(CCN3CCC(NCc4cc5c(cn4)OCCS5)CC3)c2c1 | 776 nM
Cc1cccc2nc(-c3ccc(-c4ccc(CN5CCCC(O)C5)cc4)s3)[nH]c12 (configuration not stated) | 830 nM
CN1CCC(NCc2ccc(-c3ccc(S(=O)(=O)NCc4ccccc4)cc3)cc2)CC1 | 832 nM
O=C(NCCCCN1CCC(c2c[nH]c3ccc(-c4ccccc4)cc23)CC1)c1ccc(-c2ccccc2)cc1 | 985 nM
CN(CCN1CCC(c2c[nH]c3ccccc23)CC1)C(=O)OCCCCCNC(=O)/C=C/c1ccc(Cl)c(Cl)c1 | 678 nM
CC(=O)c1sc(Cc2nc3ccccc3s2)nc1C | 1070 nM
FC(F)(F)c1cccc(CNC2CCN(CC3CCCCC3)CC2)c1 | 575 nM
COc1cccc2cc(C(=O)N[C@@H](CC(C)C)C(=O)N[C@H](C=NN3CCOC3=O)Cc3ccccc3)oc12 | 686 nM
Cc1cccc2nc(-c3cccc(-c4cccc(C(=O)NCCN5CCCC5)c4)c3)[nH]c12 | 833 nM
CC(=O)Nc1nc(C(=O)Nc2cccc(-c3cccc(-c4nc5cc(F)ccc5[nH]4)c3)c2)cs1 | 89.2 nM
C[C@H](Cc1ccc(OCCCCCCCOc2ccc(C[C@@H](C)NC[C@H](O)c3cccc(Cl)c3)cc2)cc1)NC[C@H](O)c1cccc(Cl)c1 | 189 nM
COc1cc(C(=O)Nc2cccc(-c3nc4ccccc4[nH]3)c2)cc(OC)c1OC | 723 nM
OC(c1ccccc1)C1CN(Cc2ccccc2)CCC1(O)c1ccccc1 (configuration not stated) | 846 nM

Structure (SMILES) | XC50
O=C(Nc1ccc(-c2ccc(-c3nc4ccccc4[nH]3)s2)cc1)Nc1ccsc1 | 279 nM
CNC(=O)c1cc(NCCCNCc2ccc(Cl)c(C(F)(F)F)c2)nc2ccccc12 | 931 nM
CCCOc1cc2c(cc1OCCC)C(C=Cc1ccc(Cl)cc1Cl)=NC(C)C2 (configuration not stated) | 370 nM
O=C(Nc1ccc(-c2cccc(-c3nc4cc(C(F)(F)F)ccc4[nH]3)c2)cc1)c1ccoc1 | 829 nM
COc1ccc(-c2nonc2NC(=O)c2ccc(OC(C)C)cc2)cc1OC | 635 nM
CS(=O)(=O)CCNCc1cccc(-c2cc3nccc(Nc4ccc(Oc5ccccc5)cc4)c3cc2Cl)c1 | 625 nM
Cc1ccc(F)c(OCC2CCCN(c3ccc(C(=O)NC4CC4)cn3)C2)c1 (configuration not stated) | 773 nM
CC(C)CNCc1cccc(-c2cccc(CN(C(=O)c3cccs3)C3CCN(Cc4ccccc4)CC3)c2)c1 | 896 nM
CC(C)COc1ccc(Cl)cc1Cc1nc(-c2nc3ccc(CN4CCN(C)CC4)cc3[nH]2)co1 | 912 nM
CC(=O)Nc1ccc(CN(Cc2cccc(OC(C)(C)C)c2)Cc2ccc3c(c2)OCCO3)cc1 | 136 nM
C/C=C/COc1ccc2ccccc2c1CNCCCCCCCCNCc1c(OC/C=C/C)ccc2ccccc12 | 908 nM
Cc1nc(C)c(-c2ccc(C(=O)c3ccc(Cl)cc3)cc2)c(O)c1Br | 810 nM
Fc1cccc(Cl)c1-c1nc(NCCC(c2ccccc2)c2ccccc2)no1 | 546 nM
CC(C)CNCc1cccc(-c2ccccc2CN(C(=O)Nc2ccccc2)C2CCN(Cc3ccccc3)CC2)c1 | 642 nM
CC(C)(CNC(=O)C1CCN(CC2CCCCC2)CC1)c1nc(-c2ccc(Cl)c(O)c2)c(-c2ccncc2)[nH]1 | 888 nM
O=C(NCC1CCC(CNCCCc2ccccc2)CC1)Nc1ccc(Cl)c(Cl)c1 (configuration not stated) | 767 nM
Nc1nc(O)c2c(n1)CCc1c(Br)cccc1-2 | 697 nM
CC(C)n1ncc2c(C(=O)N3CCCCCC3)cc(-c3ccccc3)nc21 | 789 nM
COc1ccccc1N1CCN(CCCCNC(=O)c2ccc(NC(=O)c3ccc4ccccc4c3)cc2)CC1 | 800 nM
Cc1ccccc1CCNC(=O)c1cnc(N2CCN(c3ccncc3)CC2)c(Cl)c1 | 1060 nM
COc1cc(NCC(CN)Cc2ccc3c(c2)OCO3)nc2ccccc12 (configuration not stated) | 820 nM
O=C(/C=C/c1ccc(Cl)c(Cl)c1)NCCCCCN1CCC(NC(=S)Nc2cccc(Cl)c2)CC1 | 873 nM
O=S(=O)(Nc1cccc(CCN2CCC(N3CCCCC3)CC2)c1)c1ccc(Oc2ccccc2)cc1 | 769 nM
Cc1cnc(-c2ccc(NC(=O)c3coc4ccc(N5CC(C)N(C)C(C)C5)cc34)cc2)o1 (configuration not stated) | 645 nM
COc1c(C2CCN(CCCCNC(=O)c3ccc(-c4ccc(C#N)cc4)nc3)CC2)ccc2c1CCCC2 | 530 nM

Structure (SMILES) | XC50
O=C(/C=C/c1ccc(Cl)c(Cl)c1)NCC[C@@H]1C[C@H]1CCN1CCC(c2c[nH]c3ccccc23)CC1 | 794 nM
O=S(=O)(Nc1cccc(CCN2CCCCC2CCN2CCCC2)c1)c1ccc2ccccc2c1 (configuration not stated) | 1070 nM
CC1CN(c2cc(=O)n(Cc3ccc(NC(=O)Nc4ccc(-c5ccccc5)cc4)cc3)cn2)CC(C)N1 (configuration not stated) | 974 nM
CCC(=O)c1c(C)n(-c2ncnc3c2nc(C)n3-c2ccc(C)cc2C)c2ccccc12 | 645 nM
CCNC(=O)CCc1cccc(Br)c1 | 533 nM
Cn1ncc2c3c(CCN4CCC(NCc5cc6c(cn5)OCC6)CC4)c(Cl)cnc3ccc21 | 881 nM
CCc1cc(-c2onc(C)c2-c2cc3ccccc3o2)c(O)cc1OC | 969 nM
COc1ccccc1C1CCN(CCN2CCC(NC(=O)c3ccc(-c4ccc(C#N)cc4)cc3)CC2)CC1 | 792 nM
CC1=NN(c2ccc(C)c(C)c2)C(=O)C1=NNc1cccc(-c2cccc(NC(=O)OC(C)(C)C)c2)c1O | 695 nM
Oc1ccc2ccccc2c1CNCCC1CCCCC1 | 174 nM
COc1cc2nc(N3CCC(C(N)=O)CC3)nc(NCc3ccccc3)c2cc1OC | 887 nM
Cc1cc2ccc(/C=C/C(=O)NC3CCC(CCN4CCc5ccc(C#N)cc5CC4)CC3)cc2[nH]1 (configuration not stated) | 941 nM
N#Cc1ccc(-c2ccc(C(=O)NCCCCN3CCC(c4cn(CCCO)c5ccccc45)CC3)cc2)cc1 | 750 nM
CCC(C)c1cccc(C(C)CC)c1OCCCON1C(N)=NC(N)=NC1(C)C (configuration not stated) | 20 nM
CC(C)CNC(=O)CN1C(=O)C(c2ccccc2)(c2ccccc2)N=C1N | 815 nM
COc1ccc(CN2CCC(CNCCc3c(Cl)cccc3Cl)CC2)cc1 | 435 nM
CCN1CCN(CCCNc2c3ccccc3nc3ccccc23)CC1 | 798 nM
O=C(/C=C/c1ccc(Cl)c(Cl)c1)NC1CCC(CN2CCC(c3nc4ccccc4n3CCCO)CC2)CC1 (configuration not stated) | 577 nM
CNC(=O)c1cnc(Nc2ccc3[nH]c(=O)[nH]c3c2)nc1Nc1cccc(OC(C)C)c1 | 926 nM
O=C(/C=C/c1ccc(Cl)c(Cl)c1)NCCCCCN1CCCN(C(=O)Nc2cc(Cl)nc(Cl)c2)CC1 | 786 nM
COc1cc(Cc2cnc(N)nc2N)cc(OC)c1OCCCCCN1C(=O)c2ccccc2C1=O | 618 nM
COc1cccc(C2CCN(CCN3CCC(NC(=O)c4ccc(-c5ccc(Cl)cc5)cc4)CC3)CC2)c1 | 1090 nM
COc1cc2c(cc1N1CCN(C)CC1)N(C(=O)Nc1ccc(-c3ccncc3)c(Cl)c1Cl)CC2 | 608 nM
c1ccc(CN2CCC(NCc3ccccc3-c3cccc(CNC4CCCC4)c3)CC2)cc1 | 718 nM
c1ccc2[nH]c(-c3ccc(-c4ccc(CN5CCN(c6ccncc6)CC5)cc4)s3)nc2c1 | 202 nM

Structure (SMILES) | XC50
Nc1cc2c(C3CCN(CC4CCN(C(=O)/C=C/c5ccc(Cl)c(Cl)c5)CC4)CC3)c[nH]c2cn1 | 975 nM
CCOC(=O)CNCC(=O)c1ccc(OCc2ccccc2)cc1 | 161 nM
Oc1ccc(CCNCCCCCCNCCc2ccc(Cl)cc2)c(Cl)c1O | 775 nM
CC(=O)Nc1ccc(CN(Cc2ccc(F)cc2)Cc2ccc3c(c2)OCO3)cc1 | 943 nM
CC1(C)NC(N)=NC(=N)N1OCCCSc1ccccc1 | 3.2 nM
Cc1cc(Nc2ccc(O)cc2)nc2cccc(O)c12 | 742 nM
N=c1c(C(=O)NCc2ccccc2)cc2c(=O)n3ccccc3nc2n1CCc1ccccc1 | 535 nM
COc1ccc2[nH]c(/C=C/c3cccc4ccc(C)nc34)nc2c1 | 792 nM
CN(C)c1ccc(-c2csc(C(=O)NC3CCCCN(Cc4ccc(C(C)(C)C)cc4)C3)c2)cc1 (configuration not stated) | 1110 nM
Nc1cccc(CNCc2cccc(-c3cccc(-c4nc5cc(F)ccc5[nH]4)c3)c2)c1 | 692 nM
COCCN(CCOC)c1ncc(-c2ccsc2)c(-c2nc(C)c(C)s2)n1 | 843 nM
CC(C)(C)c1ccc2nccc(Nc3cccc(O)c3)c2c1 | 973 nM
COc1ccccc1-n1ccnc1SCC(=O)Nc1cc(C(F)(F)F)ccc1Cl | 9.3 nM
O=S(=O)(NCCN1CCCC1)c1cccc(-c2cccc(CNCc3ccccc3)c2)c1 | 811 nM
CN1CCN(c2ccnc3ccc(NC(=O)Nc4ccc(-c5ccncc5)c5ccccc45)cc23)CC1 | 312 nM
COc1ccc(NC(=O)Nc2ccc(C)c(-c3ccc(C(=O)Nc4ccncc4)cc3)c2)cc1 | 572 nM
O=C(Cn1cc(C=C2SC(=NC3CCCC3)N(C3CCCC3)C2=O)c2ccccc21)N1CCCC1 | 297 nM
COc1ccc2nccc([C@@H](O)CN3CCC(NCc4ccc5c(c4)NC(=O)CS5)CC3)c2c1 | 567 nM
COc1ccc2ncc(F)c(CCN3CC[C@H](NCc4cc5c(s4)CCCN5)[C@H](O)C3)c2n1 | 962 nM
O=C(NCc1ccc2c(c1)OCO2)c1nn(CCN2CCC(N3CCCC3)CC2)cc1-c1ccc(Cl)c(Cl)c1 | 935 nM
CNC(=O)/C=C/c1cc(NC(=O)Nc2ccnc3c(Br)cccc23)ccc1OC | 864 nM
CN(CCc1ccccc1)c1ncc(-c2cccc(CNCCC3CCCN3C)c2)cn1 (configuration not stated) | 870 nM
